From PubChem BioAssay AID1259407 (Chemical Carcinogenesis Research Information System (CCRIS), 2018)
The source made the active and inactive calls. How the calls were made is not given here.

Test system: CCRIS mutagenicity, Ames/micronucleus/aberration tests
Assay: CCRIS mutagenicity studies
[1] = Test System: AMES SALMONELLA TYPHIMURIUM, Strain/Indicator: TA98, Metabolic Activation: NONE, Method: STANDARD PLATE
[2] = Test System: AMES SALMONELLA TYPHIMURIUM, Strain/Indicator: TA98, Metabolic Activation: RAT, LIVER, S-9, AROCLOR 1254, Method: STANDARD PLATE
[3] = Test System: AMES SALMONELLA TYPHIMURIUM, Strain/Indicator: TA100, Metabolic Activation: NONE, Method: STANDARD PLATE
[4] = Test System: AMES SALMONELLA TYPHIMURIUM, Strain/Indicator: TA100, Metabolic Activation: RAT, LIVER, S-9, AROCLOR 1254, Method: STANDARD PLATE
[5] = Test System: AMES SALMONELLA TYPHIMURIUM, Strain/Indicator: TA1535, Metabolic Activation: NONE, Method: STANDARD PLATE
[6] = Test System: AMES SALMONELLA TYPHIMURIUM, Strain/Indicator: TA1535, Metabolic Activation: RAT, LIVER, S-9, AROCLOR 1254, Method: STANDARD PLATE
[7] = Test System: AMES SALMONELLA TYPHIMURIUM, Strain/Indicator: TA1537, Metabolic Activation: NONE, Method: STANDARD PLATE
[8] = Test System: AMES SALMONELLA TYPHIMURIUM, Strain/Indicator: TA1537, Metabolic Activation: RAT, LIVER, S-9, AROCLOR 1254, Method: STANDARD PLATE
[9] = Test System: AMES SALMONELLA TYPHIMURIUM, Strain/Indicator: TA1538, Metabolic Activation: NONE, Method: STANDARD PLATE
[10] = Test System: AMES SALMONELLA TYPHIMURIUM, Strain/Indicator: TA1538, Metabolic Activation: RAT, LIVER, S-9, AROCLOR 1254, Method: STANDARD PLATE
[11] = Test System: AMES SALMONELLA TYPHIMURIUM, Strain/Indicator: TA100, Metabolic Activation: NONE, Method: PREINCUBATION
[12] = Test System: AMES SALMONELLA TYPHIMURIUM, Strain/Indicator: TA1535, Metabolic Activation: NONE, Method: PREINCUBATION

Structure (SMILES)	mutagenic call [1]	mutagenic call [2]	mutagenic call [3]	mutagenic call [4]	mutagenic call [5]	mutagenic call [6]	mutagenic call [7]	mutagenic call [8]	mutagenic call [9]	mutagenic call [10]	mutagenic call [11]	mutagenic call [12]	further results
C1COCO1	inactive; negative	inactive; negative	inactive; negative	inactive; negative	inactive; negative	inactive; negative	inactive; negative	inactive; negative	inactive; negative	inactive; negative			
c1ccc(Cc2ccc(CC3CO3)cc2)cc1 (centres undefined)			active; positive		active; positive						inactive; negative	inactive; negative	
COc1ccccc1/C=C/C=O	inactive; negative	inactive; negative	inactive; negative	inactive; negative	inactive; negative	inactive; negative	inactive; negative	inactive; negative	inactive; negative	inactive; negative	inactive; negative	inactive; negative	mutagenic call (Test System: AMES SALMONELLA TYPHIMURIUM, Strain/Indicator: TA98, Metabolic Activation: HAMSTER, LIVER, S-9, AROCLOR 1254 (2.5-20%), Method: PREINCUBATION): inactive; negative; mutagenic call (Test System: AMES SALMONELLA TYPHIMURIUM, Strain/Indicator: TA98, Metabolic Activation: HAMSTER, LIVER, S-9, AROCLOR 1254, Method: STANDARD PLATE): inactive; negative; mutagenic call (Test System: AMES SALMONELLA TYPHIMURIUM, Strain/Indicator: TA100, Metabolic Activation: HAMSTER, LIVER, S-9, AROCLOR 1254 (2.5-20%), Method: PREINCUBATION): inactive; negative; mutagenic call (Test System: AMES SALMONELLA TYPHIMURIUM, Strain/Indicator: TA100, Metabolic Activation: HAMSTER, LIVER, S-9, AROCLOR 1254, Method: STANDARD PLATE): inactive; negative; mutagenic call (Test System: AMES SALMONELLA TYPHIMURIUM, Strain/Indicator: TA100, Metabolic Activation: RAT, LIVER, S-9, AROCLOR 1254, Method: PREINCUBATION): inactive; negative; mutagenic call (Test System: AMES SALMONELLA TYPHIMURIUM, Strain/Indicator: TA102, Metabolic Activation: HAMSTER, LIVER, S-9, AROCLOR 1254, Method: PREINCUBATION): inactive; negative; mutagenic call (Test System: AMES SALMONELLA TYPHIMURIUM, Strain/Indicator: TA102, Metabolic Activation: RAT, LIVER, S-9, AROCLOR 1254, Method: PREINCUBATION): inactive; negative; mutagenic call (Test System: AMES SALMONELLA TYPHIMURIUM, Strain/Indicator: TA1535, Metabolic Activation: HAMSTER, LIVER, S-9, AROCLOR 1254, Method: STANDARD PLATE): inactive; negative; mutagenic call (Test System: AMES SALMONELLA TYPHIMURIUM, Strain/Indicator: TA1537, Metabolic Activation: HAMSTER, LIVER, S-9, AROCLOR 1254, Method: STANDARD PLATE): inactive; negative; mutagenic call (Test System: AMES SALMONELLA TYPHIMURIUM, Strain/Indicator: TA1538, Metabolic Activation: HAMSTER, LIVER, S-9, AROCLOR 1254, Method: STANDARD PLATE): inactive; negative; mutagenic call (Test System: Mouse lymphoma, Strain/Indicator: L5178Y (tk+/tk-), Metabolic Activation: None, Method: Suspension/plate): active; inconclusive (previous evaluation positive); mutagenic call (Test System: Mouse lymphoma, Strain/Indicator: L5178Y (tk+/tk-), Metabolic Activation: Rat, Liver, S-9, Aroclor 1254, Method: Suspension/plate): active; inconclusive (previous evaluation positive)
COc1ccc2c3c1O[C@H]1[C@@H](O)C=C[C@H]4[C@@H](C2)N(C)CC[C@@]341											inactive; negative	inactive; negative	mutagenic call (Test System: AMES SALMONELLA TYPHIMURIUM, Strain/Indicator: TA97, Metabolic Activation: HAMSTER, LIVER, S-9, AROCLOR 1254 (10 OR 30%), Method: PREINCUBATION): inactive; negative; mutagenic call (Test System: AMES SALMONELLA TYPHIMURIUM, Strain/Indicator: TA97, Metabolic Activation: NONE, Method: PREINCUBATION): inactive; negative; mutagenic call (Test System: AMES SALMONELLA TYPHIMURIUM, Strain/Indicator: TA97, Metabolic Activation: RAT, LIVER, S-9, AROCLOR 1254 (10 OR 30%), Method: PREINCUBATION): inactive; negative; mutagenic call (Test System: AMES SALMONELLA TYPHIMURIUM, Strain/Indicator: TA98, Metabolic Activation: HAMSTER, LIVER, S-9, AROCLOR 1254 (10 OR 30%), Method: PREINCUBATION): inactive; negative; mutagenic call (Test System: AMES SALMONELLA TYPHIMURIUM, Strain/Indicator: TA98, Metabolic Activation: NONE, Method: PREINCUBATION): inactive; negative; mutagenic call (Test System: AMES SALMONELLA TYPHIMURIUM, Strain/Indicator: TA98, Metabolic Activation: RAT, LIVER, S-9, AROCLOR 1254 (10 OR 30%), Method: PREINCUBATION): inactive; negative; mutagenic call (Test System: AMES SALMONELLA TYPHIMURIUM, Strain/Indicator: TA100, Metabolic Activation: HAMSTER, LIVER, S-9, AROCLOR 1254 (10 OR 30%), Method: PREINCUBATION): inactive; negative; mutagenic call (Test System: AMES SALMONELLA TYPHIMURIUM, Strain/Indicator: TA100, Metabolic Activation: RAT, LIVER, S-9, AROCLOR 1254 (10 OR 30%), Method: PREINCUBATION): inactive; negative; mutagenic call (Test System: AMES SALMONELLA TYPHIMURIUM, Strain/Indicator: TA1535, Metabolic Activation: HAMSTER, LIVER, S-9, AROCLOR 1254 (10 OR 30%), Method: PREINCUBATION): inactive; negative; mutagenic call (Test System: AMES SALMONELLA TYPHIMURIUM, Strain/Indicator: TA1535, Metabolic Activation: RAT, LIVER, S-9, AROCLOR 1254 (10 OR 30%), Method: PREINCUBATION): inactive; negative
Clc1ccc(CCC2CO2)cc1 (centres undefined)			active; positive		active; positive						inactive; negative	inactive; negative	
